Patent publication US8211909B2, “Treatment of antibiotic-resistant bacteria infection” (TaiGen Biotechnology Co., Ltd., priority 2008, dated 2012)
Converted amounts (≈) assume the structure as drawn. Where two headings read alike, the source gives them in different places.

What was measured:
[1] = Pharmacokinetic assays of plasma of subjects taking Compound 1; settings: for Cmax: day 10, plasma; for Free AUC0-24 / Free Cmax: corrected for plasma protein binding
Description: 5 mL of each sample was transferred to a heparin sodium tube and immediately placed on ice. Plasma was separated by centrifugation at approximately 4° C. and transferred to appropriately labeled polypropylene specimen containers (two tubes with 1-1.5 mL plasma/tube) and frozen at approximately −70° C. before use.
Prior to analysis of the blood samples, pharmacokinetic assays were validated.
The pharmacokinetic assays of the blood samples were performed by Charles River Laboratories (Worcester, Mass.).

[2] = tested on: Methicillin-resistant Staphylococcus aureus (MRSA) isolates; assay: MIC by broth microdilution (CLSI) against CAN-ICU MRSA isolates; format: cell-based; settings: for MIC50 / MIC90 / MIC: Staphylococcus aureus; for MIC50: read-out: MIC50; for MIC90: read-out: MIC90
Text: MRSA isolates (n=193) were obtained as part of the Canadian National Intensive Care Unit (CAN-ICU) Study. 19 medical centers from all regions of Canada with active ICUs participated in the CAN-ICU study included. They were requested to only obtain “clinically significant” specimens from patients with a presumed infectious disease. Surveillance swabs, eye, ear, nose and throat swabs were excluded. Anaerobic organisms and fungal organisms were also excluded.
From September 2005-June 2006 (inclusive), each center collected a maximum of 300 consecutive pathogens isolated from blood, urine, tissue/wound, and respiratory specimens (one pathogen per cultured site per patient) of ICU patients. These isolates were shipped to the reference laboratory (Health Sciences Centre, Winnipeg, Canada) on Amies charcoal swabs, subcultured in appropriate media, and stocked in skim milk at −80° C.
All isolates underwent mecA PCR, as well as molecular characterization (including PVL analysis and fingerprinting), as previously described, to assess whether they were community-associated or healthcare-associated (Christianson et al., J Clin Microbiol. 2007, 45 (6): 1904-11; Mulvey et al., J Clin. Microbiol. 2001, 39(10): 3481-5; Mulvey et al., Emerg Infect Dis. 2005,11(6): 844-50; Oliveira et al., Antimicrob Agents Chemother. 2002, 46(7): 2155-61). The isolates were also subtyped using pulsed-field gel electrophoresis (PFGE) following the Canadian standardized protocol as previously described (Mulvey et al., J Clin Microbiol. 2001, 39(10): 3481-5). Their PFGE fingerprints thus obtained were analyzed with BioNumerics v3.5 (Applied Maths St. Marten-Latem, Belgium) using a position tolerance of 1.0 and an optimization of 1.0. Strain relatedness was determined as previously described (Tenover et al., 1995). The fingerprints of the isolates were compared to the national MRSA fingerprint database and were grouped into one of 10 Canadian epidemic MRSA (CMRSA-1, CMRSA-2, etc) as previously described (Mulvey et al., Emerg Infect Dis. 2005,11(6):844-50).
Compound 1 and other antibiotics were tested for their inhibitory activity against the MRSA isolates using the broth microdilution guidelines as stipulated by the Clinical and Laboratory Standards Institute.

E. faecalis = assay: CANWARD 2007 gram-positive cocci, CLSI broth microdilution; format: cell-based; design: unit not given beside the values; settings: E. faecalis (81)
Description: From January-December 2007, 12 hospitals across Canada submitted isolates from patients attending hospital clinics, emergency rooms, medical and surgical wards, and intensive care units. 7881 isolates (CANWARD 2007) were collected including 3473 gram-positive cocci. Susceptibility testing for Compound 1 and Levofloxacin was performed using the Clinical and Laboratory Standards Institute broth microdilution.

[3] = tested on: Vancomycin-resistant E. faecalis; assay: MIC by agar dilution (CLSI-M100-S18), Taiwan Enterococci isolates; format: cell-based, Enterococcus faecalis
Description: Compound 1 was tested for its inhibitory effect against multidrug-resistant Methicillin-resistant Staphylococcus aureus and Enterococci obtained by 10 medical centers in all regions of Taiwan. MICs were determined using the agar dilution methods recommended by the Clinical and Laboratory Standards Institute (CLSI-M100-S18).

[4] = 500 mg q24 p.o., MIC90 0.125 μg/mL
[5] = 500 mg q24 p.o., MIC90 0.5 μg/mL
[6] = 500 mg q24 p.o., MIC90 0.75 μg/mL
[7] = 750 mg q24 p.o., MIC90 0.125 μg/mL
[8] = 750 mg q24 p.o., MIC90 0.5 μg/mL
[9] = 750 mg q24 p.o., MIC90 0.75 μg/mL
[10] = 1000 mg q24 p.o., MIC90 0.125 μg/mL
[11] = 1000 mg q24 p.o., MIC90 0.5 μg/mL
[12] = 1000 mg q24 p.o., MIC90 0.75 μg/mL
[13] = 1000 mg q24 p.o., MIC90 1 μg/mL
[14] = MRSA / USA100, USA 100/800 (HA-MRSA)
[15] = MRSA / USA200, USA 200 (HA-MRSA)
[16] = MRSA / USA300, USA 300 (CA-MRSA)
[17] = MRSA / USA400, USA 400 (CA-MRSA)
[18] = MRSA / USA600, USA 600 (HA-MRSA)
[19] = Enterococcus faecalis, Vancomycin-resistant E. faecalis (n = 34)

For `COc1c(N2C[C@@H](C)C[C@H](N)C2)ccc2c(=O)c(C(=O)O)cn(C3CC3)c12` [Compound 1, (3S,5S)-7-[3-amino-5-methyl-piperidinyl]-1-cyclopropyl-1,4-dihydro-8-methoxy-4-oxo-3-quinolinecarboxylic acid], the Cmax ([1]; 500 mg q24 p.o.) was 5560 ng/mL, the “Free AUC0-24/MIC90 ratio at steady state” value [1, 4] was 259 and the “Free Cmax/MIC90 ratio at steady state” value [1, 4] was 37. For the same compound, the “Free AUC0-24/MIC90 ratio at steady state” value [1, 5] was 65, the “Free Cmax/MIC90 ratio at steady state” value [1, 5] was 9 and the “Free AUC0-24/MIC90 ratio at steady state” value [1, 6] was 43. For the same compound, the “Free Cmax/MIC90 ratio at steady state” value [1, 6] was 6, the “Free AUC0-24/MIC90 ratio at steady state” value ([1]; 500 mg q24 p.o., MIC90 1 μg/mL) was 32 and the “Free Cmax/MIC90 ratio at steady state” value ([1]; 500 mg q24 p.o., MIC90 1 μg/mL) was 5. The “Free AUC0-24/MIC90 ratio at steady state” value ([1]; 500 mg q24 p.o., MIC90 […]) was 130, the “Free Cmax/MIC90 ratio at steady state” value ([1]; 500 mg q24 p.o., MIC90 […]) was 19 and the “Free AUC0-24” value ([1]; 500 mg q24 p.o.) was 32400 ng·h/mL. The “Free Cmax” value ([1]; 500 mg q24 p.o.) was 4700 ng/mL, the Cmax ([1]; 750 mg q24 p.o.) was 6820 ng/mL and the “Free AUC0-24/MIC90 ratio at steady state” value [1, 7] was 393. For the same compound, the “Free Cmax/MIC90 ratio at steady state” value [1, 7] was 46, the “Free AUC0-24/MIC90 ratio at steady state” value [1, 8] was 98 and the “Free Cmax/MIC90 ratio at steady state” value [1, 8] was 11. For the same compound, the “Free AUC0-24/MIC90 ratio at steady state” value [1, 9] was 65, the “Free Cmax/MIC90 ratio at steady state” value [1, 9] was 8 and the “Free AUC0-24/MIC90 ratio at steady state” value ([1]; 750 mg q24 p.o., MIC90 1 μg/mL) was 49. For the same compound, the “Free Cmax/MIC90 ratio at steady state” value ([1]; 750 mg q24 p.o., MIC90 1 μg/mL) was 6, the “Free AUC0-24/MIC90 ratio at steady state” value ([1]; 750 mg q24 p.o., MIC90 […]) was 196 and the “Free Cmax/MIC90 ratio at steady state” value ([1]; 750 mg q24 p.o., MIC90 […]) was 23. For the same compound, the “Free AUC0-24” value ([1]; 750 mg q24 p.o.) was 49100 ng·h/mL, the “Free Cmax” value ([1]; 750 mg q24 p.o.) was 5700 ng/mL and the Cmax ([1]; 1000 mg q24 p.o.) was 8200 ng/mL. For the same compound, the “Free AUC0-24/MIC90 ratio at steady state” value [1, 10] was 503, the “Free Cmax/MIC90 ratio at steady state” value [1, 10] was 55 and the “Free AUC0-24/MIC90 ratio at steady state” value [1, 11] was 126. The “Free Cmax/MIC90 ratio at steady state” value [1, 11] was 14, the “Free AUC0-24/MIC90 ratio at steady state” value [1, 12] was 84 and the “Free Cmax/MIC90 ratio at steady state” value [1, 12] was 9. For the same compound, the “Free AUC0-24/MIC90 ratio at steady state” value [1, 13] was 63, the “Free Cmax/MIC90 ratio at steady state” value [1, 13] was 7 and the “Free AUC0-24/MIC90 ratio at steady state” value ([1]; 1000 mg q24 p.o., MIC90 […]) was 251. For the same compound, the “Free Cmax/MIC90 ratio at steady state” value ([1]; 1000 mg q24 p.o., MIC90 […]) was 28, the “Free AUC0-24” value ([1]; 1000 mg q24 p.o.) was 62900 ng·h/mL and the “Free Cmax” value ([1]; 1000 mg q24 p.o.) was 6900 ng/mL. For the same compound, the “activity against community-associated versus healthcare-associated MRSA strains (in words)” value ([2]; CA-MRSA vs HA-MRSA strains) was “more active against community-associated-MRSA strains than healthcare-associated-MRSA strains”, the “inhibition of MRSA (in words)” value ([2]; MRSA isolates) was “effectively inhibited” and the MIC50 [2, 14] was 4 µg/mL (≈ 10.8 µM). For the same compound, the MIC90 [2, 14] was > 4 µg/mL, the MIC50 [2, 15] was 2 µg/mL (≈ 5.38 µM) and the MIC90 [2, 15] was 2 µg/mL (≈ 5.38 µM). The MIC50 [2, 16] was 0.5 µg/mL (≈ 1.35 µM), the MIC90 [2, 16] was 0.5 µg/mL (≈ 1.35 µM) and the MIC50 [2, 17] was 0.06 µg/mL (≈ 0.162 µM). It also gave an MIC90 [2, 17] of 0.06 µg/mL (≈ 0.162 µM), an MIC50 [2, 18] of 2 µg/mL (≈ 5.38 µM) and an MIC90 [2, 18] of 2 µg/mL (≈ 5.38 µM). For the same compound, the MIC50 ([2]; MRSA (n = 193)) was 4 µg/mL (≈ 10.8 µM), the MIC90 ([2]; MRSA (n = 193)) was > 4 µg/mL and the MIC ([2]; MRSA (n = 193), read-out: MIC Range Max) was > 4 µg/mL. It also gave an MIC ([2]; MRSA (n = 193), read-out: MIC Range Min) of 0.03 µg/mL (≈ 0.0808 µM), an MIC50 (E. faecalis) of 0.12 and an MIC90 (E. faecalis) of 1. For the same compound, the MIC50 [3, 19] was 4 µg/mL (≈ 10.8 µM), the MIC90 [3, 19] was 4 µg/mL (≈ 10.8 µM) and the “MIC Range” value ([3]; Vancomycin-resistant E. faecalis (n = 34)) was 0.12 to 8 µg/mL. For the same compound, the “inhibition (in words)” value ([3]; Vancomycin-resistant Enterococcus faecalis) was “effective”.
